Source: patent US20150344540A1, “NOVEL GLP-1 RECEPTOR AGONISTS WITH CHOLESTEROL EFFLUX ACTIVITY” (NOVO NORDISK A/S, priority 2012, published 2015)
Where two headings read alike, the source gives them in different places. Where a SMILES comes first, the peptide text is derived from it. Where no end group is shown, it is not given here. [ ]: non-standard residue; d: D form. Aib = CC(C)(N)C(=O)O

Legend:
[1] = system: Mouse monocyte/macrophage cell line, RAW 264.7; test: Cholesterol efflux assay (3H-cholesterol, macrophage cell line); type: cell-based; settings: RAW 264.7, 4 hrs incubation, 0.1% human serum albumin; for 4 h Cholesterol Efflux Emax: ABCA1-mediated efflux; for EC50: read-out: 4 h Cholesterol Efflux EC50, ABCA1-mediated efflux (CPT-cAMP induced minus non-induced)
[2] = Pharmacokinetics in mini-pigs after i.v. administration; settings: female, Göttingen, minipig, iv, 5 nmol/kg
From the text: The aim of the study is to assess the pharmacokinetic properties of the compounds of the invention, in mini-pigs.
Göttingen mini-pigs female, 15-20 kg, purchased from Ellegaard Mini-pigs, Denmark, were housed in the Animal Unit, Novo Nordisk A/S and were kept and handled according to normal procedure in the Animal Unit. After minimum 2 weeks of acclimatization two permanent central venous catheters were implemented in vena cava caudalis in each animal. After surgery the animals were in their normal individual pens during the pharmacokinetic experiments.
Intravenous injections were given through the central short catheter, which was flushed with min 10 ml of sterile saline post administration. The test substance was dosed at 5 nmol/kg, N=3, in a volume of 0.05 ml/kg.
On day 1 the catheters are coupled to extension tubes, which will be removed at the end of day 1.
Samples were kept on wet ice until centrifugation (10 min, 4° C., 1942 g). Afterwards, plasma (min. 100 μl) was transferred immediately to Micronic tubes and kept at −20° C. until analysis. The plasma samples were analysed by an immunoaasay described below.
The plasma concentrations of the peptides with intact N-terminus were determined using a Luminescence Oxygen Chanelling Immuno-assay (LOCI). The donor beads were coated with streptavidin, while acceptor beads were conjugated with a monoclonal antibody recognizing a mid-/C-terminal epitope of the peptide. The other monoclonal antibody, specific for the N-terminus, was biotinylated. The three reactants were combined with the analyte and formed a two-sited immuno-complex. Illumination of the complex released singlet oxygen atoms from the donor beads, which were channeled into the acceptor beads and triggered chemi-luminescence which was measured in an Envision plate reader. The amount of light was proportional to the concentration of the compound.
Plasma concentration-time profiles was analysed by a non-compartmental pharmacokinetics analysis using Phoenix (Pharsight Inc., Mountain View, Calif., USA). Calculations were performed using individual concentration-time values from each animal.

[3] = molecular target: human GLP-1 receptor (Homo sapiens, UniProt P43220); test: Functional GLP-1 receptor assay, in vitro potency (CRE luciferase; whole cells); type: cell-based; settings: BHK cells expressing human GLP-1 receptor
human GLP-1 receptor, sequence (P43220 24-463): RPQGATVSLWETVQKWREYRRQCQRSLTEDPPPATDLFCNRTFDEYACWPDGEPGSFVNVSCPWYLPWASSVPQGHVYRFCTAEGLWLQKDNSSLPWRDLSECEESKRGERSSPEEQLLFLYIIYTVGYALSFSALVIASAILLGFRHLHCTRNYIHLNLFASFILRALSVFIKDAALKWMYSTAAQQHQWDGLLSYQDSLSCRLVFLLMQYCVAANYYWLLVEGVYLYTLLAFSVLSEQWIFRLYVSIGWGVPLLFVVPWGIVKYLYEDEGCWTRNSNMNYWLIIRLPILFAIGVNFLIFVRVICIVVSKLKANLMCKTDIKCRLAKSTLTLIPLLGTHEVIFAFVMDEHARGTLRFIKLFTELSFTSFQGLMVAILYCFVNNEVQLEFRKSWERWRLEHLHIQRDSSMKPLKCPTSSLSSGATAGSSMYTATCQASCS

[4] = plasma, T1/2 Mean Value, Göttingen mini-pigs, N=3

CC[C@H](C)[C@H](NC(=O)[C@H](Cc1ccccc1)NC(=O)[C@H](CCC(=O)O)NC(=O)[C@H](CCCCN)NC(=O)[C@@H](NC(=O)[C@H](C)NC(=O)[C@H](CCC(=O)O)NC(=O)CNC(=O)[C@H](CCC(=O)O)NC(=O)[C@H](CC(C)C)NC(=O)[C@H](Cc1ccc(O)cc1)NC(=O)[C@H](CO)NC(=O)[C@H](CO)NC(=O)[C@@H](NC(=O)[C@H](CC(=O)O)NC(=O)[C@H](CO)NC(=O)[C@@H](NC(=O)[C@H](Cc1ccccc1)NC(=O)[C@@H](NC(=O)CNC(=O)[C@H](CCC(=O)O)NC(=O)C(C)(C)NC(=O)[C@@H](N)Cc1c[nH]cn1)[C@@H](C)O)[C@@H](C)O)C(C)C)C(C)C)C(=O)N[C@@H](C)C(=O)N[C@@H](Cc1c[nH]c2ccccc12)C(=O)N[C@@H](CC(C)C)C(=O)N[C@H](C(=O)N[C@@H](CCC(=O)O)C(=O)N[C@@H](CCCCN)C(=O)NC(C)(C)C(=O)N[C@@H](CCCCN)C(=O)N[C@@H](CCC(=O)O)C(=O)N[C@@H](Cc1ccccc1)C(=O)N[C@@H](CC(C)C)C(=O)N[C@@H](CCC(=O)O)C(=O)N[C@@H](CCCCN)C(=O)N[C@H](C(=O)N[C@@H](CCCCN)C(=O)N[C@@H](CCC(=O)O)C(=O)N[C@@H](Cc1ccccc1)C(N)=O)C(C)C)C(C)C [Compound 61]
4 h Cholesterol Efflux Emax [1]: 82% | C0 ([2]; plasma): 53.3 nM | Vd ([2]; plasma): 0.27 L/kg | clearance ([2]; plasma): 5.9 mL/h/kg | half-life [2, 4]: 31.8 h

HAEGTFTSDVSSYLEGQAAKEFIAWLVEKVKEHL-NH2 [Compound 107, [Glu34,Lys35,Val36,Lys37]-GLP-1-(7-37)-peptidyl-Glu-His-Leu amide]
EC50 ([3]; 0% HSA, read-out: GLP1R CRE luc 0% HSA EC50 Mean Value): 0.04 nM | EC50 ([3]; GLP1R CRE luc 1% HSA EC50 Mean Value, 1% HSA): 0.01 nM | C0 ([2]; plasma): 59.2 nM | Vd ([2]; plasma): 0.0615 L/kg | clearance ([2]; plasma): 8.04 mL/h/kg | half-life [2, 4]: 5.4 h

CC[C@H](C)[C@H](NC(=O)[C@H](Cc1ccccc1)NC(=O)[C@H](CCC(=O)O)NC(=O)[C@H](CCCCN)NC(=O)[C@@H](NC(=O)[C@H](C)NC(=O)[C@H](CCC(=O)O)NC(=O)CNC(=O)[C@H](CCC(=O)O)NC(=O)[C@H](CC(C)C)NC(=O)[C@H](Cc1ccc(O)cc1)NC(=O)[C@H](CO)NC(=O)[C@H](CO)NC(=O)[C@@H](NC(=O)[C@H](CC(=O)O)NC(=O)[C@H](CO)NC(=O)[C@@H](NC(=O)[C@H](Cc1ccccc1)NC(=O)[C@@H](NC(=O)CNC(=O)[C@H](CCC(=O)O)NC(=O)C(C)(C)NC(=O)[C@@H](N)Cc1c[nH]cn1)[C@@H](C)O)[C@@H](C)O)C(C)C)C(C)C)C(=O)N[C@@H](C)C(=O)N[C@@H](Cc1c[nH]c2ccccc12)C(=O)N[C@@H](CC(C)C)C(=O)N[C@H](C(=O)N[C@@H](CCC(=O)O)C(=O)N[C@@H](CCCCN)C(=O)NC(C)(C)C(=O)N[C@@H](CCCCN)C(=O)N[C@@H](CCC(=O)O)C(=O)N[C@@H](Cc1ccccc1)C(=O)N[C@@H](CC(C)C)C(=O)O)C(C)C [Compound 16, [Aib8,Glu23,Val25,Glu34,Lys35,Aib36,Lys37]-GLP-1-(7-37)-peptidyl-Glu-Phe-Leu]
4 h Cholesterol Efflux Emax [1]: 105% | EC50 [1]: 680 nM | C0 ([2]; in vivo): 123 nM | Vd ([2]; in vivo): 0.0889 L/kg | clearance ([2]; in vivo): 1.44 mL/h/kg | half-life ([2]; in vivo): 42.8 h

HGEGTFTSDVSSYLEGEAVKEFIAWLVEKVKEFL-NH2 [Compound 76, [Gly8,Glu23,Val25,Glu34,Lys35,Val36,Lys37]-GLP-1-(7-37)-peptidyl-Glu-Phe-Leu amide]
C0 ([2]; in vivo): 136 nM | Vd ([2]; in vivo): 0.0636 L/kg | clearance ([2]; in vivo): 1.06 mL/h/kg | half-life ([2]; in vivo, T1/2 Mean Value): 41.7 h

CC[C@H](C)[C@H](NC(=O)[C@H](Cc1ccccc1)NC(=O)[C@H](CCC(=O)O)NC(=O)[C@H](CCCCN)NC(=O)[C@@H](NC(=O)[C@H](C)NC(=O)[C@H](CCC(=O)O)NC(=O)CNC(=O)[C@H](CCC(=O)O)NC(=O)[C@H](CC(C)C)NC(=O)[C@H](Cc1ccc(O)cc1)NC(=O)[C@H](CO)NC(=O)[C@H](CO)NC(=O)[C@@H](NC(=O)[C@H](CC(=O)O)NC(=O)[C@H](CO)NC(=O)[C@@H](NC(=O)[C@H](Cc1ccccc1)NC(=O)[C@@H](NC(=O)CNC(=O)[C@H](CCC(=O)O)NC(=O)C(C)(C)NC(=O)[C@@H](N)Cc1c[nH]cn1)[C@@H](C)O)[C@@H](C)O)C(C)C)C(C)C)C(=O)N[C@@H](C)C(=O)N[C@@H](Cc1c[nH]c2ccccc12)C(=O)N[C@@H](CC(C)C)C(=O)N[C@H](C(=O)N[C@@H](CCC(=O)O)C(=O)N[C@@H](CCCCN)C(=O)NC(C)(C)C(=O)N[C@@H](CCCCN)C(=O)N[C@@H](CCC(=O)O)C(=O)N[C@@H](Cc1c[nH]cn1)C(=O)N[C@@H](CC(C)C)C(N)=O)C(C)C [Compound 4, [Aib8,Glu23,Val25,Glu34,Lys35,Aib36,Lys37]-GLP-1-(7-37)-peptidyl-Glu-His-Leu amide] (H-H[Aib]EGTFTSDVSSYLEGEAVKEFIAWLVEK[Aib]KEHL-NH2)
4 h Cholesterol Efflux Emax [1]: 100% | C0 ([2]; plasma): 72.1 nM | Vd ([2]; plasma): 0.1 L/kg | clearance ([2]; plasma): 3.31 mL/h/kg | half-life ([2]; plasma, T1/2, mini-pigs): 20.6 h | half-life [2, 4]: 20.6 h

CC[C@H](C)[C@H](NC(=O)[C@H](Cc1ccccc1)NC(=O)[C@H](CCC(=O)O)NC(=O)[C@H](CCCCN)NC(=O)[C@@H](NC(=O)[C@H](C)NC(=O)[C@H](CCC(=O)O)NC(=O)CNC(=O)[C@H](CCC(=O)O)NC(=O)[C@H](CC(C)C)NC(=O)[C@H](Cc1ccc(O)cc1)NC(=O)[C@H](CO)NC(=O)[C@H](CO)NC(=O)[C@@H](NC(=O)[C@H](CC(=O)O)NC(=O)[C@H](CO)NC(=O)[C@@H](NC(=O)[C@H](Cc1ccccc1)NC(=O)[C@@H](NC(=O)CNC(=O)[C@H](CCC(=O)O)NC(=O)C(C)(C)NC(=O)[C@@H](N)Cc1c[nH]cn1)[C@@H](C)O)[C@@H](C)O)C(C)C)C(C)C)C(=O)N[C@@H](C)C(=O)N[C@@H](Cc1c[nH]c2ccccc12)C(=O)N[C@@H](CC(C)C)C(=O)N[C@H](C(=O)N[C@@H](CCC(=O)O)C(=O)N[C@@H](CCCCN)C(=O)NC(C)(C)C(=O)N[C@@H](CCCCN)C(=O)N[C@@H](CCC(=O)O)C(=O)N[C@@H](Cc1ccccc1)C(=O)N[C@@H](CC(C)C)C(=O)N[C@@H](CCC(=O)O)C(=O)N[C@@H](CCCCN)C(=O)O)C(C)C [Compound 99, [Aib8,Glu23,Val25,Glu34,Lys35,Aib36,Lys37]-GLP-1-(7-37)-peptidyl-Glu-Phe-Leu-Glu-Lys]
4 h Cholesterol Efflux Emax [1]: 99% | EC50 [1]: 290 nM | C0 ([2]; in vivo): 95.8 nM | Vd ([2]; in vivo): 0.0921 L/kg | clearance ([2]; in vivo): 1.2 mL/h/kg | half-life ([2]; in vivo): 53.2 h

CC[C@H](C)[C@H](NC(=O)[C@H](Cc1ccccc1)NC(=O)[C@H](CCC(=O)O)NC(=O)[C@H](CCCCN)NC(=O)[C@@H](NC(=O)[C@H](CCCCN)NC(=O)[C@H](CCC(=O)O)NC(=O)CNC(=O)[C@H](CCC(=O)O)NC(=O)[C@H](CC(C)C)NC(=O)[C@H](Cc1ccc(O)cc1)NC(=O)[C@H](CO)NC(=O)[C@H](CO)NC(=O)[C@@H](NC(=O)[C@H](CC(=O)O)NC(=O)[C@H](CO)NC(=O)[C@@H](NC(=O)[C@H](Cc1ccccc1)NC(=O)[C@@H](NC(=O)CNC(=O)[C@H](CCC(=O)O)NC(=O)C(C)(C)NC(=O)[C@@H](N)Cc1c[nH]cn1)[C@@H](C)O)[C@@H](C)O)C(C)C)C(C)C)C(=O)N[C@@H](CCC(=O)O)C(=O)N[C@@H](Cc1c[nH]c2ccccc12)C(=O)N[C@@H](CC(C)C)C(=O)N[C@H](C(=O)N[C@@H](CCC(=O)O)C(=O)N[C@@H](CCCCN)C(=O)NC(C)(C)C(=O)N[C@@H](CCCCN)C(=O)N[C@@H](CCC(=O)O)C(=O)N[C@@H](Cc1ccccc1)C(=O)N[C@@H](CC(C)C)C(N)=O)C(C)C [Compound 49, [Aib8,Glu23,Lys24,Val25,Glu30,Glu34,Lys35,Aib36,Lys37]-GLP-1-(7-37)-peptidyl-Glu-Phe-Leu amide] (H-H[Aib]EGTFTSDVSSYLEGEKVKEFIEWLVEK[Aib]KEFL-NH2)
4 h Cholesterol Efflux Emax [1]: 123% | C0 ([2]; plasma): 131 nM | Vd ([2]; plasma): 0.0878 L/kg | clearance ([2]; plasma): 2.68 mL/h/kg | half-life [2, 4]: 24 h

HGEGTFTSDVSSYLEGEAVKEFIAWLVEKVKEHL-NH2 [Compound 78, [Gly8,Glu23,Val25,Glu34,Lys35,Val36,Lys37]-GLP-1-(7-37)-peptidyl-Glu-His-Leu amide]
C0 ([2]; in vivo): 58.4 nM | Vd ([2]; in vivo): 0.134 L/kg | clearance ([2]; in vivo): 4.45 mL/h/kg | half-life ([2]; in vivo, T1/2 Mean Value): 20.6 h

HAEGTFTSDVSSYLEGEAVKEFIAWLVEKVKEFL-NH2 [Compound 67, [Glu23,Val25,Glu34,Lys35,Val36,Lys37]-GLP-1-(7-37)-peptidyl-Glu-Phe-Leu amide]
C0 ([2]; plasma): 163 nM | Vd ([2]; plasma): 0.056 L/kg | clearance ([2]; plasma): 1.17 mL/h/kg | half-life [2, 4]: 33 h
